From patent publication US9266813B2, “Stilbenoid compound as inhibitor for squamous carcinoma and hepatoma and uses thereof” (AnnCare Bio-Tech Center Inc., priority 2013, dated 2016)
Converted amounts (≈) assume the structure as drawn. Like-named read-outs stand apart in the source and are kept apart here.

What was measured:
[1] = Water solubility assay; type: physicochemical; conditions: read-out: Water solubility, Content
From the text: The water solubility of the compounds of the present invention can be determined by methods known in the art and the result is shown in Table 3.

[2] = test system: CAR cells; assay: MTT assay, antiproliferation on cisplatin-resistant head and neck squamous carcinoma (CAR) cells; type: cell-based, human; conditions: Homo sapiens, CAR cells, MTT
Description: The human head and neck carcinoma cell line CAL27 was obtained from American Tissue Culture Collection (ATCC). The cisplatin-resistant cell line CAR (CAL27-cisplatin resistance) was established by clonal selection of CAL27 using 10 cycles of 1 passage treatment with 10-80 μM of cisplatin (Sigma-Aldrich Corp. (St. Louis, Mo., USA) followed by a recovery period of another passage. CAR cells were cultivated in Dulbecco's modified Eagle's medium (DMEM) supplemented with 10% FBS, 100 μg/mL streptomycin, 100 U/mL penicillin G, 2 mM L-glutamine (Gibco by Life Technologies (Carlsbad, Calif., USA)) and 80 μM of cisplatin (Sigma-Aldrich Corp. (St. Louis, Mo., USA).
(§1) Antiproliferations of compound 2-4 were determined by an improved MTT assay. The CAR cells were individually plated at a density of 2×10^4 cells/well onto 96-well plates and treated with Dimethyl sulfoxide (DMSO) alone (0.5% (v/v) in media served as a vehicle control) and various concentrations (0, 25, 50, 75 and 100 μM) of compound 2-4 for 24 and 48 hours. Following the above treatments, the supernatant was discarded before a 100 μL solution of MTT (500 μg/ml) was added to each well for 4 hours at 37 °C. After incubation, the medium was replaced by the addition of 200 μL DMSO to solubilize the violet formazan crystal produced from MTT. The absorbance of the dissolved formazan grained within the cells was measured at 570 nm by a microplate reader to calculate viability (data shown as % of control).
(§2) Please refer to Table 1. Hep3B cells and CAR cells were treated by different concentrations of the compounds of the invention for 48 and 72 hours, and the antiprolifieration effect of such compounds was evaluated using MTT assay. Data are presented as IC50 (μM), the concentration of 50% proliferation-inhibitory effect.
MTT assay was utilized and CAR cells were treated with compound 2-4 in different concentration for 24, 48 and 72 hours. […] The IC50 after 72 hours of treatment was 50 μM.

[3] = test system: Hep3B cells; assay: MTT assay, antiproliferation on Hep3B cells; type: cell-based; conditions: for IC50: Homo sapiens, Hep3B cells, MTT; for anticancer activity compared with resveratrol and pterostilbene: Hep 3B and CAR cells, Table 1
Description: as §1, §2
The anti-proliferative ability of compound 2-4 in hepatocellular carcinoma was evaluated in Hep3B cells using MTT assay. Hep3B cells were treated with various concentrations of compound 2-4 for 48 and 72 hours.

[4] = 48 hours, read-out: CAR (IC50 (μM)) 48 hours
[5] = 72 hours, read-out: CAR (IC50 (μM)) 72 hours
[6] = 48 hours, read-out: Hep 3B (IC50 (μM)) 48 hours
[7] = 72 hours, read-out: Hep 3B (IC50 (μM)) 72 hours

SMILES	solubility [1] [µg/mL]	IC50 [2, 4] [µM]	IC50 [2, 5] [µM]	IC50 [3, 6] [µM]	IC50 [3, 7] [µM]	anticancer activity compared with resveratrol and pterostilbene [3]
CC(CO)(CO)C(=O)Oc1cc(/C=C/c2ccc(O)cc2)cc(OC(=O)C(C)(CO)CO)c1 [Compound 6-3, 3,5-[2,2-Bis(hydroxymethyl)propanoxy]-resveratrol]	455 (≈ 988 µM)	91.4	77	137	55.3	
CC(CO)(CO)C(=O)Oc1ccc(/C=C/c2cc(O)cc(OC(=O)C(C)(CO)CO)c2)cc1 [Compound 3-6, 3,4′-[2,2-Bis(hydroxymethyl)propanoxy]-resveratrol]	136 (≈ 295 µM)	105	113	54.2	36.8	more potent anticancer activity than resveratrol and pterostilbene
Oc1ccc(/C=C/c2cc(O)cc(O)c2)cc1 [Resveratrol, 3,5,4′-trihydroxy-trans-stilbene, reference compound]	107 (≈ 470 µM)	153	88.3	96.4	51.6	
CC(CO)(CO)C(=O)Oc1cc(O)cc(/C=C/c2ccc(O)cc2)c1 [Compound 5-3]	410 (≈ 1190 µM)	54.9	113	83.5	68.9	
COc1ccc(/C=C/c2cc(OC)cc(OC(=O)C(C)(CO)CO)c2)cc1 [Compound 7-3, 3,4′methyl-5-[2,2-Bis(hydroxymethyl)propanoxy]-resveratrol]	53.4 (≈ 143 µM)	64.2	67.3	70.8	48.7	more potent anticancer activity than resveratrol and pterostilbene
CC(CO)(CO)C(=O)Oc1ccc(/C=C/c2cc(O)cc(O)c2)cc1 [Compound 3-5]	52.9 (≈ 154 µM)	169	133	144	47.8	

Now from value to compound, other results behind:

solubility [1] [µg/mL]	IC50 [2, 4] [µM]	IC50 [2, 5] [µM]	IC50 [3, 6] [µM]	IC50 [3, 7] [µM]	SMILES	anticancer activity compared with resveratrol and pterostilbene [3]
> 1000	122	119	> 200	> 200	CC(=O)Oc1cc(/C=C/c2ccc(OC(=O)C(C)(CO)CO)cc2)cc(OC(=O)C(C)(CO)CO)c1 [Compound 10-4, 3-acetyl-5,4′-[2,2-Bis(hydroxymethyl)propanoxy]-resveratrol]	
337 (≈ 710 µM)	73.9	70.8	53.4	39.1	COc1ccc(/C=C/c2cc(OC(=O)C(C)(CO)CO)cc(OC(=O)C(C)(CO)CO)c2)cc1 [Compound 13-3, 3,5-[2,2-Bis(hydroxymethyl)propanoxy]-4′-methyl-resveratrol]	more potent anticancer activity than resveratrol and pterostilbene
81.9 (≈ 205 µM)	52	50.3	85.2	36.8	COc1cc(/C=C/c2ccc(OC(=O)C(C)(CO)CO)cc2)cc(OC(C)=O)c1 [Compound 12-3, 5-acetyl-3-methyl-4′-[2,2-Bis(hydroxymethyl)propanoxy]-resveratrol]	more potent anticancer activity than resveratrol and pterostilbene
< 10	> 200	> 200	94.7	59.5	COc1cc(/C=C/c2ccc(OC(=O)C3OC(C)(C)OC3C3COC(C)(C)O3)cc2)cc(OC)c1 [Compound 14-5, Pterostilbene D-Ribonic Acid Diacetonide]	
35.8 (≈ 99.9 µM)	67.3	64	88.9	33.2	COc1cc(O)cc(/C=C/c2ccc(OC(=O)C(C)(CO)CO)cc2)c1 [Compound 11-3, 3-methyl-4′-[2,2-Bis(hydroxymethyl)propanoxy]-resveratrol]	more potent anticancer activity than resveratrol and pterostilbene
